Patent publication US20070027181A1, “Benzylisoquinoline derivative- or bisbenzylisoquinoline derivative-containing psychotropic agent, analgesic and/or antiphlogistic, and health food” (EDUCATION CENTER OF TRADITIONAL, priority 2004, published 2007)

Tests used:
[1] = test system: mice; settings: Ito et al., abstract of the Japanese Society of Pharmacognosy; cited from earlier work
[2] = test system: mice; test: locomotor activity (ultromotivity) test, evaluation of sedative action; format: in vivo, Male ICR mice
Description: (§1) In the following Examples, all extracts and drugs used were dissolved in physiological saline before use for i.p. administration and the dose was 0.1 ml of physiological saline per 10 g of mouse body weight in either case. All extracts and drugs were suspended in physiological saline containing 1% sodium carboxymethylcellulose before use for oral administration and the dose was 0.1 ml of 1% sodium carboxymethylcellulose-containing physiological saline suspension per 10 g of mouse body weight in either case. Male ICR mice (Japan SLC) having a body weight of 25 to 30 g were used in the tests below unless otherwise stated, and were fed in advance at a room temperature of 23±1° C. and a relative humidity of 55±5% in the environment of a cycle of 12-hour-light from 7 a.m. to 7 p.m. and 12-hour-dark from 7 p.m. to 7 a.m. for 3 to 5 days. The mice were allowed to have water and feed freely.
Twenty five mice were grouped into five groups each having five mice, to which 5 mg/kg of N-methylcoclaurine hydrochloride (treatment group 1-1: i.p. administration), 50 mg/kg of neferine hydrochloride (treatment group 1-2: oral administration, and treatment group 1-3: i.p. administration), 50 mg/kg of liensinine hydrochloride (treatment group 1-4: oral administration), or physiological saline (negative control group 1-1: i.p. administration) was administered. The ultromotivity of the mice was analyzed by using a locomotor activity monitoring system (NS-AS01, Neuroscience Inc.). The ultromotivity measurements were performed at an interval of 5 minutes for 60 minutes, and the ultromotivity was judged from the count at each measuring time.
Similar tests were conducted by i.p. administration of 25 mg/kg of N-norarmepavine (treatment group 1-5, n=6), 25 mg/kg of O,O-dimethylcoclaurine (treatment group 1-6, n=5), 10 mg and 25 mg/kg of armepavine (respectively, treatment group 1-7, n=6, and treatment group 1-8, n=6), 10 mg and 25 mg/kg of O-methylarmepavine (respectively, treatment group 1-9, n=6, and treatment group 1-10, n=6), and physiological saline (negative control group 1-2, n=5). The ultromotivity measurements were performed at an interval of five minutes for 60 minutes, and the ultromotivity was subjected to a significant difference test (Tukey's method) by using the counts at respective measuring times.
Tests were performed by using mice administered intraperitoneally with 25 mg/kg of neferine hydrochloride (treatment group 7-1, n=6), 25 mg/kg of liensinine hydrochloride (treatment group 7-2, n=6), and physiological saline (negative control group, n=6) as well as 5 mg/kg of diazepam (positive control group, n=6) and a rotarod equipment (Ugo Basile, Italy) and a locomotor activity monitoring system (NS-AS01, Neuroscience Inc.). The rotarod test was performed by placing a mouse on a rod having a diameter of 4 cm rotating at a speed of 8 rpm 15 minutes after drug administration and observing whether the mouse can stay on the rod without falling for three minutes. The individuals that had fallen from the rotating rod in the period of 3 minutes were judged that they are with motor coordination disorder. […] In addition, the ultromotivity measurements were performed at an interval of five minutes for 60 minutes, and the ultromotivity results were subjected to a significant difference test (Tukey's method) by using the counts at respective measuring times.

[3] = test system: mice; test: thiopental sleep-enhancing test; format: in vivo, Male ICR mice; settings: 50 mg/kg i.p. 15 minutes before thiopental 60 mg/kg i.p.
Description: Actions on thiopental sleep by various compounds were evaluated. Thiopental dissolved in physiological saline was administered intraperitoneally into mice at a dose of 60 mg/kg. […] The time when the righting reflex of the mice disappeared after thiopental administration was designated as sleep-induction time and the time when the righting reflex was restored was designated as awakening time, and total sleep time was calculated from these values.

[4] = test system: mice; test: formalin pad test; format: in vivo, Male ICR mice; settings: for Licking sustaining time (second) First phase: 0 to 5 minutes; for Licking sustaining time (second) Second phase: 15 to 30 minutes
Description: as §1
A formalin pad test is a method in which, when formalin is subcutaneously administered to a pad of a mouse, the mouse causes licking, and analgesic action of a test drug is determined by utilizing this. Suppression of licking in a test drug-administered group was investigated relative to a physiological saline-administered control group, and analgestic action was evaluated.
Six mice per group were used. Neferine hydrochloride was intraperitoneally administered at a dose of 25 mg/kg, 50 mg/kg or 100 mg/kg and, after fifteen minutes, 20 μl of a 0.2% by weight formalin aqueous solution was subcutaneously administered to a right hind paw pad. After formalin administration, licking was regarded as a provisional pain reaction, and a licking sustaining time in a first phase from immediately after formalin administration to five minutes after formalin administration and in a second phase from 15 minutes to 30 minutes after formalin administration was measured. Regarding the resulting measurements, a significant difference test was performed by a Dunnet multiple comparison test method.
According to the same manner as in Example 13 except that 10 mg/kg of O-methylarmepavine was intraperitoneally administered in place of neferine, a formalin pad test was performed.

[5] = 25 mg/kg i.p. 15 minutes before formalin
[6] = 50 mg/kg i.p. 15 minutes before formalin
[7] = 100 mg/kg i.p. 15 minutes before formalin

In the case of COc1ccc(C[C@@H]2c3cc(Oc4cc(C[C@@H]5c6cc(OC)c(OC)cc6CCN5C)ccc4O)c(OC)cc3CCN2C)cc1 [neferine], the locomotor activity-inhibiting action [1] is given as “exhibited a locomotor activity-inhibiting action”, the “Significant difference test of ultromotivity” value ([2]; 25 mg/kg i.p., Tukey's method, 60 minutes) is given as “P < 0.01” and the “Ultromotivity (count) 30 minutes” value ([2]; 50 mg/kg i.p.) is given as 500 count. The “Ultromotivity (count) 60 minutes” value ([2]; 50 mg/kg i.p., 60 minutes) was 760 count, the “Ultromotivity (count) 30 minutes” value ([2]; 50 mg/kg oral) was 500 count and the “Ultromotivity (count) 60 minutes” value ([2]; 50 mg/kg oral, 60 minutes) was 750 count. For the same compound, the “Total sleep time” value [3] was 100 min, the “Licking sustaining time (second) First phase” value [4, 5] was 95.2 ± 3.79 s and the “Licking sustaining time (second) Second phase” value [4, 5] was 235.7 ± 13.01 s. The “Licking sustaining time (second) First phase” value [4, 6] was 98.7 ± 8.57 s, the “Licking sustaining time (second) Second phase” value [4, 6] was 200.3 ± 24.43 s and the “Licking sustaining time (second) First phase” value [4, 7] was 78.3 ± 7.57 s. The “Licking sustaining time (second) Second phase” value [4, 7] was 139.7 ± 18.61 s.
